How the values were obtained:
[1] = system: TROY; assay: Western blot of TROY expression after PPF treatment; format: cell-based, human
Description: (§1) FIG. 24A—a Western blot analysis of TROY expression in T98G cells. Cells were treated with PPF at indicated concentrations for 6 hrs, lysed, and cell lysates immunoblotted with anti-TROY antibody. Immunoblotting of α-Tubulin in cell lysates is included as a loading control. FIG. 24B—Western blot analysis of TROY expression in T98G, GBM43, and GBM10 cells. Cells were treated with PPF at indicated concentrations for 24 hrs, lysed, and cell lysates immunoblotted with anti-TROY and α-Tubulin antibodies. FIG. 24C—Western Blot analysis of TROY expression in GBM10 and GBM43 primary glioma cells. Cells were treated with 5 μM PPF, lysed at the indicated time-points, and the lysates immunoblotted with an anti-TROY antibody. Immunoblotting of β-Actin in cell lysates is included as a loading control. FIG. […]—Western Blot analysis of T98G, GBM10 and GBM43 glioma cells treated with 5 μM PPF for 24 hours. Lysates were immunoblotted with anti-TROY, anti-TNFR1, anti-EGFR, and β-Actin antibodies.
Referring now to FIGS. 24A, 24B, 24C, and 24D: The inventors investigated if PPF could be utilized pharmacologically to decrease TROY expression in GBM cells. The long-term established cell line T98G was first utilized to test the efficacy of PPF. Cells were treated with increasing concentration of PPF, 1 to 20 μM lysed, and TROY expression assessed by immunobloting. Briefly, monolayers of cells were washed in phosphate-buffered saline (PBS) containing 1 mM phenylmethylsulfonylfluoride and 1 mM sodium orthovanadate and then lysed in 2×SDS sample buffer containing protease and phosphatase inhibitors. Protein concentrations were determined using the BCA Assay (Pierce). Thirty micrograms of total protein was loaded per lane and separated by SDS-PAGE. After transfer, the nitrocellulose membrane (Invitrogen) was blocked with either 5% nonfat-milk or 5% BSA in TB ST before addition of primary antibodies and followed with peroxidase-conjugated secondary antibody (Promega). Protein bands were detected using SuperSignal® Chemiluminescent Substrate (Pierce) with a UVP BioSpectrum 500 Imaging System.

[2] = system: AKT; assay: Immunoblot of AKT activation after PPF; format: cell-based, human; conditions: T98G and GBM43 cells treated with PPF
Description: FIGS. 26A, 26B, and 26C depict that PPF sensitizes GBM cells to TMZ and radiotherapy. FIG. 26A—A clonogenic assay was used to assess T98G and GBM43 cells survival after TMZ and radiation treatment. Cells were pre-treated with 5 μM PPF for 24 hours, and then either treated with 250 μM TMZ for 24 hours or exposed to 2 Gy radiation. Graph depicts the surviving fraction in the treated cells compared to vehicle (VC) treated or non-treated (NT) cells, **p<0.01. FIG. 26B—T98G glioma cells were treated with vehicle, PPF (5 μM) TMZ (250 μM) and PPF in combination with TMZ. TMZ-induced apoptosis was assayed by immunoblot analysis of cell lysates with an antibody to cleaved PARP. Immunoblotting for α-Tubulin was included as a loading control. FIG. 26C—T98G, GBM10, and GBM43 cells were treated with PPF ([…], and then immunoblotted to assess the activation of AKT and NF-κB. Immunoblotting for β-Actin is included as a loading control.
Referring now to FIGS. 26A, 26B, and 26C: Knockdown of TROY expression with shRNA decreases TMZ resistance in GBM cells in vitro (See Reference 42). […] Following combination therapy, cells were trypsinized, counted, and plated in a 6-well culture dish at densities of 100, 250, and 500 cells per well in triplicate. Cells were incubated for 12 days then fixed, stained with 0.5% crystal violet solution, and counted manually by blinded observers. […]

[3] = system: microglia; conditions: by decreasing TROY expression; cited from earlier work
[4] = system: EGFR; assay: Western blot of EGFR expression after PPF treatment; format: cell-based, human; conditions: T98G, GBM10, GBM43 cells, 5 μM PPF, 24 hours
Description: as §1, with “Lysates were immunoblotted with anti-TROY, anti-TNFR1, anti-EGFR, and β-Actin antibodies.” left out
Referring now to FIGS. 24A, 24B, 24C, and 24D: The inventors investigated if PPF could be utilized pharmacologically to decrease TROY expression in GBM cells. […] Cells were treated with increasing concentration of PPF, 1 to 20 μM lysed, and TROY expression assessed by immunobloting. […] Protein concentrations were determined using the BCA Assay (Pierce). […] Protein bands were detected using SuperSignal® Chemiluminescent Substrate (Pierce) with a UVP BioSpectrum 500 Imaging System.

[5] = system: CNS-1 rat model; conditions: systemic PPF treatment; cited from earlier work

CCCn1cnc2c1c(=O)n(CCCCC(C)=O)c(=O)n2C [PPF, 3-methyl-1-(5-oxohexyl)-7-propyl-3,7-dihydro-1H-purine-2,6-dione]
TROY expression over time ([1]; GBM10 and GBM43 cells, 5 μM PPF, varying lengths of time): decreased in a time-dependent manner
TROY expression ([1]; T98G cells, 1 μM PPF): significant suppression
TROY expression ([1]; T98G cells, PPF 1 to 20 μM, 6 hrs): decreased in concentration dependent manner
TROY expression ([1]; T98G, GBM10, GBM43 cells, 5 μM PPF, 24 hrs): effective in lowering TROY expression
AKT phosphorylation [2]: effectively decreased
migration of microglia [3]: inhibit the migration of microglia
EGFR expression [4]: did not affect the expression
tumor growth [5]: decreased tumor growth
